The structures appear in SMILES notation.

This experiment relates to HUV-EC-C cells (human umbilical vein endothelial cells). Description: HUV-EC-C assay, VEGF-stimulated (VEGF HUVEC). In kind it is cell-based. How it is done:
The following protocol may also be used to measure a compound's activity against PDGF-R, FGF-R, VEGF, aFGF or Flk-1/KDR, all of which are naturally expressed by HUV-EC cells.
1. Wash and trypsinize HUV-EC-C cells (human umbilical vein endothelial cells, (American Type Culture Collection; catalogue no. 1730 CRL). Wash with Dulbecco's phosphate-buffered saline (D-PBS; obtained from Gibco BRL; catalogue no. 14190-029) 2 times at about 1 ml/10 cm^2 of tissue culture flask. Trypsinize with 0.05% trypsin-EDTA in non-enzymatic cell dissociation solution (Sigma Chemical Company; catalogue no. C-1544). The 0.05% trypsin is made by diluting 0.25% trypsin/l mM EDTA (Gibco; catalogue no. 25200-049) in the cell dissociation solution. Trypsinize with about 1 ml/25-30 cm^2 of tissue culture flask for about 5 minutes at 37° C. After cells have detached from the flask, add an equal volume of assay medium and transfer to a 50 ml sterile centrifuge tube (Fisher Scientific; catalogue no. 05-539-6).
2. Wash the cells with about 35 ml assay medium in the 50 ml sterile centrifuge tube by adding the assay medium, centrifuge for 10 minutes at approximately 200×g, aspirate the supernatant, and resuspend with 35 ml D-PBS. Repeat the wash two more times with D-PBS, resuspend the cells in about 1 ml assay medium/15 cm^2 of tissue culture flask. […]

`COc1ccc2c(c1)C(CC(=O)O)C/C2=C1/C(=O)Nc2ccccc21` (centres unmarked) [Compound 11, [6-Methoxy-3-(2-oxo-1,2-dihydroindol-3-ylidene)-indan-1-yl]acetic Acid] had an IC50 of 0.05 µM.
In turn, `O=C1Nc2ccccc2/C1=C1\CCc2ccccc21` [Compound 10, 3-Indan-1-ylidene-1,3-dihydroindol-2-one] came in with an IC50 of 0.33 µM.

These data come from US6642251B1, “Geometrically restricted 2-indolinone derivatives as modulators of protein kinase activity” (Sugen, Inc., priority 1998, dated 2003).
